Here are results for 21 molecules from patent US7511145B2 (Genelabs Technologies, Inc., priority 2003, dated 2009).

In the experiment the target is T1, HCV-NS5b (Hepatitis C virus genotype 1b, UniProt Q9WMX2).
T1 construct: (His)6 (C); made in house; host or cells: XL-1 cells (E. coli), IPTG-inducible plasmid, nickel-NTA purification
In words: HCV-NS5b enzyme assay (incorporation of radiolabeled UTP). It is filed as biochemical. The note with it: for inhibition at 33 µM: enzyme inhibition at compound concentration of 33 uM; for inhibition at 100 µM: read-out: % inh@100, enzyme inhibition at compound concentration of 100 uM. The text has this: The coding sequence of NS5b protein was cloned by PCR from pFKI389luc/NS3-3′/ET as described by Lohmann, V., et al. (1999) Science 285, 110-113 using the following primers: […]
The cloned fragment was missing the C terminus 21 amino acid residues. The cloned fragment was inserted into an IPTG-inducible expression plasmid that provided an epitope tag (His)6 at the carboxy terminus of the protein.
The recombinant enzyme was expressed in XL-1 cells and after induction of expression, the protein was purified using affinity chromatography on a nickel-NTA column. Storage condition was 10 mM Tris-HCl pH 7.5, 50 mM NaCl, 0.1 mM EDTA, 1 mM DTT, 20% glycerol at −20° C.
The polymerase activity was assayed by measuring incorporation of radiolabeled UTP into a RNA product using a biotinylated, heteropolymeric template, which included a portion of the HCV genome. Typically, the assay mixture (50 μL) contained 10 mM Tris-HCl (pH 7.5), 5 mM MgCl2, 0.2 mM EDTA, 10 mM KCl, 1 unit/μL RNAsin, 1 mM DTT, 10 μM each of NTP, including [^3H]-UTP, and 10 ng/μL heteropolymeric template. Test compounds were initially dissolved in 100% DMSO and further diluted in aqueous buffer containing 5% DMSO. Typically, compounds were tested at concentrations between 1 nM and 100 μM. Reactions were started with addition of enzyme and allowed to continue at 37° C. for 2 hours. Reactions were quenched with 8 μL of 100 mM EDTA and reaction mixtures (30 μL) were transferred to streptavidin-coated scintillation proximity microtiter plates (FlashPlates) and incubated at 4° C. overnight. Incorporation of radioactivity was determined by scintillation counting.
Shown in Table IX below are the values for enzyme inhibition measured at compound concentrations of 100 and 33 uM, (% inh@[…] and % inh@33, respectively). The percent inhibition values are calculated from the differential incorporation of radioactivity compared to a control reaction without compound: % inhibition=100−[(CountsINH−CountsBKG)/CountsCTRL−CountsBKG)×100 where CountsINH is the signal of the testwell with inhibitor, CountsBKG is the background signal and CountsCTRL is the signal of a testwell without inhibitor.

As to `O=C(O)c1ccc2c(c1)nc(-c1ccc3nc(-c4ccccc4)cnc3c1)n2C1CCCCC1` [Compound 203, 1-Cyclohexyl-2-(2-phenyl-quinoxalin-6-yl)-1H-benzoimidazole-5-carboxylic acid], the inhibition at 33 µM amounted to 75% and the inhibition at 100 µM is 97.5%.
On to `O=C(O)c1ccc2c(c1)nc(-c1ccc3nc(-c4cc(C(=O)N5CCCC5)ccc4-c4ccc(Cl)cc4)ccc3c1)n2C1CCCCC1` [Compound 204, 2-{2-[4′-Chloro-4-(pyrrolidine-1-carbonyl)-biphen-2-yl]-quinolin-6-yl}-1-cyclohexyl-1H-benzoimidazole-5-carboxylic acid], for which the inhibition at 33 µM stood at 99.7% and the inhibition at 100 µM worked out at 101%.
On the same counts, the results for `O=C(O)c1ccc2c(c1)nc(-c1ccc3ncc(-c4ccccc4)nc3c1)n2C1CCCCC1` [Compound 205, 1-Cyclohexyl-2-(3-phenyl-quinoxalin-6-yl)-1H-benzoimidazole-5-carboxylic acid] are 84.4% and 99%.
The corresponding values for `O=C(O)c1ccc2c(c1)nc(-c1ccc3ncc(-c4ccccc4)cc3c1)n2C1CCCCC1` [Compound 206, 1-Cyclohexyl-2-(3-phenyl-quinolin-6-yl)-1H-benzoimidazole-5-carboxylic acid] are 94.2% and 96.9%.
The corresponding values for `O=C(O)c1ccc2c(c1)nc(-c1ccc3c(c1)CCC(c1ccccc1)N3)n2C1CCCCC1` (stereo not drawn) [Compound 215, 1-Cyclohexyl-2-(2-phenyl-1,2,3,4-tetrahydro-quinolin-6-yl)-1H-benzoimidazole-5-carboxylic acid] are 99.2% and 101%.
Regarding `Cc1ccc2cc(-c3nc4cc(C(=O)N[C@@H](Cc5c[nH]c6ccc(O)cc56)C(=O)O)ccc4n3C3CCCCC3)ccc2n1` [Compound 230, 2-{[1-Cyclohexyl-2-(2-methyl-quinolin-6-yl)-1H-benzoimidazole-5-carbonyl]-amino}-3-(5-hydroxy-1H-indol-3-yl)-propionic acid], the inhibition at 33 µM came to 92.7% and the inhibition at 100 µM is 98.2%.
The corresponding values for `O=C(N[C@@H](CO)C(=O)O)c1ccc2c(c1)nc(-c1ccc3nc(-c4ccccc4)ccc3c1)n2C1CCCCC1` [Compound 231, 2-{[1-Cyclohexyl-2-(2-phenyl-quinolin-6-yl)-1H-benzoimidazole-5-carbonyl]-amino}-3-hydroxy-propionic acid] are 67% and 97.5%.
The corresponding values for `NCCCC[C@H](NC(=O)c1ccc2c(c1)nc(-c1ccc3nc(-c4ccccc4)ccc3c1)n2C1CCCCC1)C(=O)O` [Compound 232, 6-Amino-2-{[1-cyclohexyl-2-(2-phenyl-quinolin-6-yl)-1H-benzoimidazole-5-carbonyl]-amino}-hexanoic acid] are 60.5% and 80.2%.
On the same counts, the results for `O=C(O)[C@@H]1CCCN1C(=O)c1ccc2c(c1)nc(-c1ccc3nc(-c4ccccc4)ccc3c1)n2C1CCCCC1` [Compound 233, 1-[1-Cyclohexyl-2-(2-phenyl-quinolin-6-yl)-1H-benzoimidazole-5-carbonyl]-pyrrolidine-2-carboxylic acid] are 50% and 88.2%.
In the case of `O=C(N[C@@H](Cc1c[nH]c2ccc(O)cc12)C(=O)O)c1ccc2c(c1)nc(-c1ccc3nc(-c4ccccc4)cnc3c1)n2C1CCCCC1` [Compound 234, 2-{[1-Cyclohexyl-2-(2-phenyl-quinoxalin-6-yl)-1H-benzoimidazole-5-carbonyl]-amino}-3-(5-hydroxy-1H-indol-3-yl)-propionic acid], the inhibition at 33 µM was determined as 98.6% and the inhibition at 100 µM worked out at 100%.
The corresponding values for `O=C(N[C@@H](Cc1c[nH]c2ccc(O)cc12)C(=O)O)c1ccc2c(c1)nc(-c1ccc3nc(-c4cc(C(=O)N5CCCC5)ccc4-c4ccc(Cl)cc4)ccc3c1)n2C1CCCCC1` [Compound 235, 2-[(2-{2-[4′-Chloro-4-(pyrrolidine-1-carbonyl)-biphen-2-yl]-quinolin-6-yl}-1-cyclohexyl-1H-benzoimidazole-5-carbonyl)-amino]-3-(5-hydroxy-1H-indol-3-yl)-propionic acid] are 99.1% and 99.5%.
For the molecule `O=C(N[C@@H](Cc1c[nH]c2ccc(O)cc12)C(=O)O)c1ccc2c(c1)nc(-c1ccc3ncc(-c4ccccc4)nc3c1)n2C1CCCCC1` [Compound 236, 2-{[1-Cyclohexyl-2-(3-phenyl-quinoxalin-6-yl)-1H-benzoimidazole-5-carbonyl]-amino}-3-(5-hydroxy-1H-indol-3-yl)-propionic acid], the inhibition at 33 µM turned out to be 99.2% and the inhibition at 100 µM came to 99.2%.
For the molecule `O=C(O)CC[C@H](NC(=O)c1ccc2c(c1)nc(-c1ccc3nc(-c4ccccc4)ccc3c1)n2C1CCCCC1)C(=O)O` [Compound 237, 2-{[1-Cyclohexyl-2-(2-phenyl-quinolin-6-yl)-1H-benzoimidazole-5-carbonyl]-amino}-pentanedioic acid], the inhibition at 33 µM was found to be 79.7% and the inhibition at 100 µM is 95.6%.
The corresponding values for `O=C(N[C@@H](Cc1c[nH]c2ccc(O)cc12)C(=O)O)c1ccc2c(c1)nc(-c1ccc3ncc(-c4ccccc4)cc3c1)n2C1CCCCC1` [Compound 238, 2-{[1-Cyclohexyl-2-(3-phenyl-quinolin-6-yl)-1H-benzoimidazole-5-carbonyl]-amino}-3-(5-hydroxy-1H-indol-3-yl)-propionic acid] are 97.6% and 98.4%.
On the same counts, the results for `O=C(O)CCNC(=O)c1ccc2c(c1)nc(-c1ccc3nc(-c4ccccc4)cnc3c1)n2C1CCCCC1` [Compound 239, 3-{[1-Cyclohexyl-2-(2-phenyl-quinoxalin-6-yl)-1H-benzoimidazole-5-carbonyl]-amino}-propionic acid] are 49.1% and 70.2%.
The corresponding values for `O=C(N[C@@H](Cc1ccc(-c2ccccc2)cc1)C(=O)O)c1ccc2c(c1)nc(-c1ccc3nc(-c4ccccc4)cnc3c1)n2C1CCCCC1` [Compound 240, 3-Biphenyl-4-yl-2-{[1-cyclohexyl-2-(2-phenyl-quinoxalin-6-yl)-1H-benzoimidazole-5-carbonyl]-amino}propionic acid] are 95.7% and 96.1%.
As for `O=C(N[C@@H](Cc1ccc(C(=O)c2ccccc2)cc1)C(=O)O)c1ccc2c(c1)nc(-c1ccc3nc(-c4ccccc4)cnc3c1)n2C1CCCCC1` [Compound 241, 3-(4-Benzoyl-phenyl)-2-{[1-cyclohexyl-2-(2-phenyl-quinoxalin-6-yl)-1H-benzoimidazole-5-carbonyl]-amino}-propionic acid], the inhibition at 33 µM was found to be 98% and the inhibition at 100 µM came out at 98.4%.
`O=C(N[C@@H](CC1CCCCC1)C(=O)O)c1ccc2c(c1)nc(-c1ccc3nc(-c4ccccc4)cnc3c1)n2C1CCCCC1` [Compound 242, 3-Cyclohexyl-2-{[1-cyclohexyl-2-(2-phenyl-quinoxalin-6-yl)-1H-benzoimidazole-5-carbonyl]-amino}-propionic acid]: the inhibition at 33 µM turned out to be 97.4% and the inhibition at 100 µM worked out at 97%.
The corresponding values for `O=C(N[C@H](C(=O)O)C1CCCCC1)c1ccc2c(c1)nc(-c1ccc3nc(-c4ccccc4)cnc3c1)n2C1CCCCC1` [Compound 243, Cyclohexyl-{[1-cyclohexyl-2-(2-phenyl-quinoxalin-6-yl)-1H-benzoimidazole-5-carbonyl]-amino}-acetic acid] are 96% and 98.1%.
Consider `O=C(O)C[C@H](NC(=O)c1ccc2c(c1)nc(-c1ccc3nc(-c4ccccc4)cnc3c1)n2C1CCCCC1)C(=O)O` [Compound 244, 2-{[1-Cyclohexyl-2-(2-phenyl-quinoxalin-6-yl)-1H-benzoimidazole-5-carbonyl]-amino}-succinic acid], for which the inhibition at 33 µM was 75.7% and the inhibition at 100 µM was 97%.
The corresponding values for `O=C(O)CC[C@H](NC(=O)c1ccc2c(c1)nc(-c1ccc3nc(-c4ccccc4)cnc3c1)n2C1CCCCC1)C(=O)O` [Compound 245, 2-{[1-Cyclohexyl-2-(2-phenyl-quinoxalin-6-yl)-1H-benzoimidazole-5-carbonyl]-amino}-pentanedioic acid] are 73.2% and 97.4%.
